Laboratory results as given in ChEMBL document CHEMBL5550136, “Total synthesis/semi-synthesis of natural isopentenyl flavonoids with inhibitory activity on NLRP3 inflammasome” (Bioorg Med Chem Lett, 2024).
The source made the active and inactive calls. The rule behind the calls is not given here.

Experiments:
[1] = target: NACHT, LRR and PYD domains-containing protein 3 (Mus musculus, UniProt Q8R4B8); assay: Inhibition of NLRP3 inflammasome activation in mouse BMDM cells assessed as reduction in IL-1beta release by ELISA; format: cell-based
Sequence of NACHT, LRR and PYD domains-containing protein 3 (Q8R4B8 whole entry, the tested form may be a part): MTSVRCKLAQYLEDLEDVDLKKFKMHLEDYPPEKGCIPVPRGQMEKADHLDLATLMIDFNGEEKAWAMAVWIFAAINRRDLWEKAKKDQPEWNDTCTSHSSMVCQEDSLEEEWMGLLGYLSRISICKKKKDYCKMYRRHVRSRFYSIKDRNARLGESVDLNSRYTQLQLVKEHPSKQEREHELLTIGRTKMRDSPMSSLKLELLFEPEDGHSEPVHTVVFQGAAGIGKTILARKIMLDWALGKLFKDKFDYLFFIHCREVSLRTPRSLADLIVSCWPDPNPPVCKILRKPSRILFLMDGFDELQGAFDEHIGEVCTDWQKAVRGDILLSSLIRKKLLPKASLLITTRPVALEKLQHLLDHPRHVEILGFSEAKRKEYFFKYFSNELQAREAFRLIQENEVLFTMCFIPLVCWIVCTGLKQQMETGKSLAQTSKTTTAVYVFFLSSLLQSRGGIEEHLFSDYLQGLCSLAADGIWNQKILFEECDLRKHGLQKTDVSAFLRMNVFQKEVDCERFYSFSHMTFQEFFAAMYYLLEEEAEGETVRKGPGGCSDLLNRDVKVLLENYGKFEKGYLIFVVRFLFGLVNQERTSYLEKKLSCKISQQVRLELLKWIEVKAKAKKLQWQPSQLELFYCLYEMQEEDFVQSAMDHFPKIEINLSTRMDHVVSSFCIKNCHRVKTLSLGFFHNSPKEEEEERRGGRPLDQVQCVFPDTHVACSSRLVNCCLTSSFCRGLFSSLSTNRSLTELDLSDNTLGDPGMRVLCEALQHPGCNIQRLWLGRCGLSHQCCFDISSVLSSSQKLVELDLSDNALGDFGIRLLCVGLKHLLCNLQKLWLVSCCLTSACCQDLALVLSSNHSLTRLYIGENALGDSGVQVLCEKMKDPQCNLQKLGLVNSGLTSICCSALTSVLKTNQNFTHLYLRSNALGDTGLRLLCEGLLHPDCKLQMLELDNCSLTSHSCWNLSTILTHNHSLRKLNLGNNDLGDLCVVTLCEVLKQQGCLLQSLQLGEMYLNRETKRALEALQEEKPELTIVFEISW

BMDM [2] = assay: Effect on pro-IL-1beta protein expression in mouse BMDM cells; format: functional, cell-based
BMDM [3] = assay: Effect on NLRP3 protein expression in mouse BMDM cells; format: functional, cell-based
[4] = target: NACHT, LRR and PYD domains-containing protein 3 (Mus musculus) (UniProt Q8R4B8); assay: Inhibition of NLRP3 inflammasome activation in mouse BMDM cells assessed as inhibition of caspase-1 release by immunoblotting analysis; format: cell-based
Sequence of NACHT, LRR and PYD domains-containing protein 3 (Mus musculus) (Q8R4B8 whole entry, the tested form may be a part): as above

[5] = target: NACHT, LRR and PYD domains-containing protein 3 (Mus musculus) (UniProt Q8R4B8); assay: Inhibition of NLRP3 inflammasome activation in mouse BMDM cells assessed as inhibition of mature IL-1beta release by immunoblotting analysis; format: cell-based
BMDM [6] = assay: Effect on pro-caspase-1 protein expression in mouse BMDM cells; format: functional, cell-based

Row | Structure (SMILES) | IC50 [1] [µM] | other results
1 | O=c1c(O)c(-c2ccc(O)cc2)oc2cc(O)cc(O)c12 [KAEMPFEROL] | > 100 | 
2 | COc1ccc(-c2cc(=O)c3c(O)cc4c(c3o2)C=CC(C)(C)O4)cc1 | > 100 | 
3 | O=c1c(O)c(-c2ccc(O)c(O)c2)oc2cc(O)cc(O)c12 [QUERCETIN] | 37.1 | 
4 | CC(C)=CCc1c(O)cc2oc(-c3ccc(O)cc3)c(O)c(=O)c2c1O [LICOFLAVONOL] | 8.5 | 
5 | CC(C)=CCC/C(C)=C/Cc1c(O)cc2oc(-c3ccc(O)cc3)c(O)c(=O)c2c1O [MACARANGIN] | 3.4 | Activity (BMDM [2]): inactive; Activity (BMDM [3]): inactive; inhibition [4]: Dose-Dependent Effect; inhibition [5]: Dose-Dependent Effect; Activity (BMDM [6]): inactive

Now from value to compound, other results behind:

Row | IC50 [1] [µM] | Structure (SMILES) | other results
6 | 20.4 | CC(C)=CCc1c(O)cc2oc(-c3ccc(O)c(O)c3)c(O)c(=O)c2c1O [GANCAONIN P] | 
7 | 41.2 | COc1cc(-c2cc(=O)c3c(O)cc(O)c(CC=C(C)C)c3o2)ccc1O | 
8 | 17.3 | COc1cc(C2CC(=O)c3c(O)cc(O)c(CC=C(C)C)c3O2)c(O)cc1O (stereo not given) [KUSHENOL W] | 
9 | 11.4 | COc1ccc(-c2cc(=O)c3c(O)cc(O)c(CC=C(C)C)c3o2)cc1 | 
10 | > 100 | COc1cc(-c2cc(=O)c3c(O)cc4c(c3o2)C=CC(C)(C)O4)ccc1O | 
